Measured values as given in ChEMBL document CHEMBL4145688, “Potent and Orally Bioavailable Inverse Agonists of RORγt Resulting from Structure-Based Design” (J Med Chem, 2018).
In brackets after ≈: the same amount, converted by molar mass.

Tests used:
[1] = biological target: T1, Nuclear receptor ROR-gamma (Homo sapiens, UniProt P51449)
T1 sequence (P51449 whole entry): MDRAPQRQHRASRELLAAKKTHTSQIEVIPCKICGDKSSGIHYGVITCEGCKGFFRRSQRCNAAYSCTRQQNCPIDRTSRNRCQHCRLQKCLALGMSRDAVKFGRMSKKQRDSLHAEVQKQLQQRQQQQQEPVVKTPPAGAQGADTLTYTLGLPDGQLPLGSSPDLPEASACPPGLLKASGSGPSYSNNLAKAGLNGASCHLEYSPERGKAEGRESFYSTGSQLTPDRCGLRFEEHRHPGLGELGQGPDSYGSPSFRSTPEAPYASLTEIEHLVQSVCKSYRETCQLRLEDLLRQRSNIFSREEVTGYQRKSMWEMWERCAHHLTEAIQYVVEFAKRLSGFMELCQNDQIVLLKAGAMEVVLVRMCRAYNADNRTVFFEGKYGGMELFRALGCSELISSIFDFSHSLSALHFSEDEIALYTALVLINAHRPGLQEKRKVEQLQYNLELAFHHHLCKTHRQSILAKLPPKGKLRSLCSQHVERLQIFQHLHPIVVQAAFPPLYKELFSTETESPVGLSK

[2] = Distribution coefficient between 1-octanol and aqueous phosphate buffer, logD of the compound in pH 7.4 buffer; format: physicochemical; details: 1-octanol/aqueous phosphate buffer
[3] = biological target: T1, Nuclear receptor ROR-gamma; remark: listed apart in the source
Description: Displacement of [3H]-2-(4-(ethylsulfonyl)phenyl)-N-(4-(2-(methoxymethyl)phenyl)thiophen-2-yl)acetamide from purified N-(HN)6-GST-TCS-human RORgammat (258 to 518 residues) incubated for 16 hrs by scintillation proximity assay

[4] = biological target: T1, Nuclear receptor ROR-gamma; assay: Inverse agonist activity at RORgammat in human TH17 cells assessed as inhibition of IL17 release incubated for 4 days by HTRF assay; format: cell-based
[5] = Cytotoxicity in human Th17 cells assessed as effect on cell viability by cell-titer-Glo luminescent cell viability assay relative to control; format: cell-based; details: read-out: Efficacy
[6] = Intrinsic clearance in rat hepatocytes assessed per million cells; format: ADME, cell-based, Hepatocyte; details: read-out: CLH
[7] = Selectivity index, ratio of cytotoxicity in human Th17 cells to IC50 for inverse agonist activity at RORgammat in human TH17 cells assessed as inhibition of IL17 release; format: toxicity, cell-based
[8] = Permeability from apical to basolateral side in human Caco2 cells; format: ADME, cell-based; details: for Papp A→B: Caco-2, read-out: permeability
[9] = Unbound fraction in human plasma by equilibrium dialysis; format: ADME, cell-free
[10] = Permeability in human Caco2 cells assessed as drug recovery; format: ADME, cell-based; details: Caco-2, read-out: Drug recovery
[11] = Permeability from basolateral to apical side in human Caco2 cells; format: ADME, cell-based; details: for Papp B→A: Caco-2, read-out: permeability
[12] = Oral bioavailability in Han Wistar rat at 1 mg/kg; format: ADME, organism-based; details: in vivo
[13] = Oral absorption in Han Wistar rat at 1 mg/kg; format: ADME, organism-based; details: in vivo, read-out: Fabs
[14] = physchem; details: aqueous buffer, pH 7.4
Description: Solubility in aqueous buffer at pH 7.4

[15] = Volume of distribution at steady state in Han Wistar rat at 0.5 mg/kg, iv or 1 mg/kg, po; format: ADME, organism-based; details: in vivo, read-out: Vdss
[16] = Efflux ratio of permeability in human Caco2 cells; format: ADME, cell-based; details: Caco-2

Structure (SMILES)	IC50 [1] [nM]	logD [2]	IC50 [3] [nM]	IC50 [4] [nM]	hepatocyte CLint [6] [µL/min/1e6 cells]	also measured
CCS(=O)(=O)c1ccc(CC(=O)Nc2nc(-c3cccc(Cl)c3)c(C(=O)c3ccccc3Cl)s2)cc1	22	> 4.2	9	180		
CCS(=O)(=O)c1ccc(CC(=O)Nc2cc(-c3cccnc3OCc3cccc(C#N)c3)cs2)cc1		≥ 4	19		281	Emax [5]: 50%
CCS(=O)(=O)c1ccc(CC(=O)Nc2cc(-c3cccnc3OC/C=C/c3ccccc3)cs2)cc1	29	≥ 4	11	25	45	Emax [5]: 40%; selectivity ratio [7]: 100
CCS(=O)(=O)c1ccc(CC(=O)Nc2cc(-c3cccc(Cl)c3)cs2)cc1		> 4.1				
CCS(=O)(=O)c1ccc(CC(=O)Nc2cc(-c3cc(C#N)cnc3OC)cs2)cc1	40	3.5	30	> 3300		permeability ([8]; Caco-2): 2.6 ×10⁻⁶ cm/s; fraction unbound [9]: 0.0009; recovery [10]: 44%; permeability ([11]; Caco-2): 17.1 ×10⁻⁶ cm/s
CCS(=O)(=O)c1ccc(CC(=O)Nc2cc(-c3cccnc3OC)cs2)cc1	110	3.6	410		13	
CCS(=O)(=O)c1ccc(CC(=O)Nc2cc(-c3cccnc3OCCc3ccccc3)cs2)cc1		≥ 4	29		125	Emax [5]: 70%
CCS(=N)(=O)c1ccc(CC(=O)Nc2cc(-c3cc(C#N)ccc3OC)cs2)cc1 (configuration not stated)	120	2.8	340			
CCS(=O)(=O)c1ccc(CC(=O)Nc2cc(-c3cc(Cl)cc(C#N)c3)cs2)cc1	90	> 4	50			
CCS(=O)(=O)c1ccc(CC(=O)Nc2cc(-c3cncnc3OC)cs2)cc1	700	2.8	1850			
CCS(=O)(=O)c1ccc(CC(=O)Nc2cc(-c3cccnc3OCc3ccc(C#N)cc3)cs2)cc1	30	≥ 4	10	100	286	Emax [5]: 50%
CCS(=O)(=O)c1ccc(CC(=O)Nc2cc(-c3cccnc3Oc3ccccc3)cs2)cc1		≥ 4	46		196	Emax [5]: 50%
CCS(=O)(=O)c1ccc(CC(=O)Nc2cc(-c3cccnc3OCC(F)(F)F)cs2)cc1	50		18	100	17	
CCS(=O)(=O)c1ccc(CC(=O)Nc2cc(-c3cccnc3OCc3ccc(C(=O)OC)cc3)cs2)cc1	21	≥ 4	14	35	> 300	selectivity ratio [7]: 100
CCS(=O)(=O)c1ccc(C(NC(C)=O)C(=O)Nc2cc(-c3cc(C#N)cc(F)c3OC)cs2)cc1 (configuration not stated)		3.3				bioavailability [12]: 18%; Fa [13]: 19%; Papp A→B [8]: 0.3 ×10⁻⁶ cm/s; solubility [14]: 200 µM (≈ 103 µg/mL); Vd [15]: 0.34 L/kg; Papp B→A [11]: 18 ×10⁻⁶ cm/s
CCS(=O)(=O)c1ccc(C(NC(C)=O)C(=O)Nc2cc(-c3cccnc3Oc3ccc(C#N)cc3)cs2)cc1 (configuration not stated)	55	3.4	66	640	10.4	

Structure (SMILES)	IC50 [1] [nM]	logD [2]	IC50 [3] [nM]	IC50 [4] [nM]	hepatocyte CLint [6] [µL/min/1e6 cells]	also measured
CC[S+]([O-])c1ccc(CC(=O)Nc2cc(-c3cc(C#N)cnc3OC)cs2)cc1 (configuration not stated)	440	3.4	1290			
CCS(=O)(=O)c1ccc(CC(=O)Nc2cc(-c3ccc(C#N)cc3Cl)cs2)cc1	780	3.7	1160			
CCOc1ncccc1-c1csc(NC(=O)Cc2ccc(S(=O)(=O)CC)cc2)c1	80	≥ 4	150		28	
CCS(=O)(=O)c1ccc(C(N)C(=O)Nc2cc(-c3cc(C#N)cc(F)c3OC)cs2)cc1 (configuration not stated)	452	3.2	75	1690	11	
CCS(=O)(=O)N1CCC(CC(=O)Nc2cc(-c3cc(C#N)cnc3OC)cs2)CC1	3250	3.2	3250			
CNS(=O)(=O)c1ccc(CC(=O)Nc2cc(-c3cc(C#N)cnc3OC)cs2)cc1	40	3.5	70	> 3300		efflux ratio [16]: 40; Papp A→B [8]: 0.65 ×10⁻⁶ cm/s; fraction unbound [9]: < 0.001; recovery [10]: 55%; solubility [14]: 0.34 µM (≈ 0.15 µg/mL); Papp B→A [11]: 26 ×10⁻⁶ cm/s
CCS(=O)(=O)c1ccc(CC(=O)Nc2cc(-c3cc(C#N)ccc3OC)cs2)cc1	30	3.6	20	> 3300		efflux ratio [16]: 7.6; Papp A→B [8]: 1.6 ×10⁻⁶ cm/s; fraction unbound [9]: 0.001; recovery [10]: 41%; solubility [14]: 0.43 µM (≈ 0.189 µg/mL); Papp B→A [11]: 12 ×10⁻⁶ cm/s
CCS(=O)(=O)c1ccc(C(NC(C)=O)C(=O)Nc2cc(-c3cccnc3OCc3ccccc3)cs2)cc1 (configuration not stated)		> 4	7		24	
CCS(=O)(=O)c1ccc(CC(=O)Nc2cc(-c3cccnc3Oc3ccc(C#N)cc3)cs2)cc1		3.6	88	190	28	
CCS(=O)(=O)c1ccc(C(NC(C)=O)C(=O)Nc2cc(-c3cc(C#N)cnc3OC)cs2)cc1 (configuration not stated)	67	3.3	14	990	4	
CCCOc1ncccc1-c1csc(NC(=O)Cc2ccc(S(=O)(=O)CC)cc2)c1		≥ 4	59		80	Emax [5]: 40%
CCS(=O)(=O)c1ccc(CC(=O)Nc2cc(-c3cccnc3OCCCc3ccccc3)cs2)cc1		≥ 4	17	> 3300	104	Emax [5]: 30%
CCS(=O)(=O)c1ccc(CC(=O)Nc2cc(-c3cc(C#N)ccc3Cl)cs2)cc1	60	3.8	50			
CCS(=O)(=O)c1ccc(CC(=O)Nc2cc(-c3cccnc3OCc3ccccc3)cs2)cc1		> 4	20		128	Emax [5]: 30%; fraction unbound [9]: 0.0003; selectivity ratio [7]: < 10; solubility [14]: 0.42 µM (≈ 0.207 µg/mL)
CCS(=O)(=O)c1ccc(C(NC(C)=O)C(=O)Nc2cc(-c3cccnc3OCc3ccc(OC(F)(F)F)cc3)cs2)cc1 (configuration not stated)	75	4.6	6	32	9.1	
